# Patent publication US4876282A, “1-Phenylalkylamines as selective serotonin uptake inhibitors” (Eli Lilly and Company, priority 1987, dated 1989)
# Structures can show the parent of a compound that is named as a salt.
# Test system: 5HT uptake
# Test: Inhibition of 5HT uptake in vitro (synaptosomal uptake of 3H-serotonin, rat cerebral cortex)
# Assay type: biochemical, Sprague-Dawley rat
# Details: rat cortical synaptosomes, 37° C., 5 min, 50 nM 3H-5HT; tested as oxalate salt; read-out: IC50 5HT (concentration needed to inhibit 50% of serotonin uptake)
# Method: This general procedure is set forth by Wong et al., in Drug Development Research 6:397-403 (1985).
# Male Sprague-Dawley rats (110-150 g) from Harlan Industries (Cumberland, Ind.) were fed Purina Chow ad libitum for at least 3 days before being used in the studies. Rats were killed by decapitation. Whole brains were removed and dissected. Cerebral cortex was homogenized in 9 volumes of a medium containing 0.32 M sucrose and 10 mM glucose. Crude synaptosomal preparations were isolated after differential centrifugation at 1,000 g for 10 min. and 17,000 g for 28 min. The final pellets were suspended in the same medium and kept in ice until use within the same day.
# Synaptosomal uptake of ^3 H-serotonin(^3 H-5-hydroxytryptamine, ^3 H-5HT) was determined as follows. Cortical synaptosomes (equivalent to 1 mg of protein) were incubated at 37° C. for 5 min in 1 ml of Krebsbicarbonate medium containing also 10 mM glucose, 0.1 mM iproniazid, 1 mM ascorbic acid, 0.17 mM EDTA and 50 nM ^3 H-5HT. The reaction mixture was immediately diluted with 2 ml of ice-chilled Krebs-bicarbonatebuffer and filtered under vacuum with a cell harvester (Brandel, Gaithersburg, Md). Filters were rinsed twice with approximately 5 ml of ice-chilled 0.9% saline and were transferred to a counting vial containing 10 ml of scintillation fluid (PCS, Amersham, Arlington Heights, Il). Radioactivity was measured by a liquid scintillation spectrophotometer. Accumulation of ^3 H-5HT at 4° C. represented the background and was subtracted from all samples.
# The numbers in parentheses represent percent inhibition at 1000 nM.
row,Structure (SMILES),IC50
1,"CN(C)C(CCCc1cccc2ccccc12)c1ccccc1 (stereo not shown) [Example 2, N,N-Dimethyl-1-phenyl-4-(1-naphthalenyl)butylaminium oxalate]",30 nM
2,"CNC(CCCc1cccc2ccccc12)c1ccccc1 (stereo not shown) [Example 3, N-Methyl-1-phenyl-4-(1-naphthalenyl)butyl-aminium oxalate]",70 nM
3,"NC(CCCc1cccc2ccccc12)c1ccccc1 (stereo not shown) [Example 1, 1-Phenyl-4-(1-napthalenyl)butylaminium oxalate]",240 nM
4,"CN(C)C(CCc1cccc2ccccc12)c1ccccc1 (stereo not shown) [Example 4, N,N-Dimethyl-1-phenyl-3-(1-naphthalenyl)propylaminium oxalate]",240 nM
